Reference: patent US20110183978A1, “Phenylpyri(mi)dinylazoles” (Bayer CropScience AG, priority 2009, published 2011)
Like-named read-outs stand apart in the source and are kept apart here.

Assays:
Alternaria solani = assay: Example M: in vivo test on Alternaria solani (leaf blotch disease/tomato/protective); settings: 168 h, tomato, protective, 500 ppm active substance, assessed 7 days after inoculation, read-out: % Wirkungsgrad (activity level)
Procedure, shortened: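 Protective test: young tomato plants sprayed with active substance (in DMF with alkylaryl polyglycol ether emulsifier, diluted in water) at the stated dosage, then inoculated with Alternaria solani. Disease assessed 7 days after inoculation.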

Fusarium proliferatum = assay: Example I: production of fumonisin FB1 by Fusarium proliferatum (microtitre plates); format: cell-based; settings: 120 h
Sphaerotheca fuliginea = assay: Example L: in vivo test on Sphaerotheca fuliginea (powdery mildew on cucumber/protective); settings: Podosphaera fuliginea, 168 h, cucumber, protective, assessment 7 days after inoculation, read-out: % Wirkungsgrad
Procedure: Solvent: 49 parts by weight N,N-dimethylformamide Emulsifier: 1 part by weight alkylaryl polyglycol ethers For the preparation of a suitable active substance preparation, 1 part by weight of active substance is mixed with the stated quantities of solvent and emulsifier and the concentrate is diluted to the desired concentration with water. For the testing for protective activity, young cucumber plants are sprayed with the active substance preparation at the stated application dosage. One day after the treatment, the plants are inoculated with a spore suspension of Sphaerotheca fuliginea. Next, the plants are placed in a greenhouse at 70% relative atmospheric humidity and a temperature of 23° C. 7 days after the inoculation, the assessment takes place.

Fusarium graminearum = assay: microbe, parasite or virus in culture; format: cell-based
Venturia inaequalis = assay: Example O: in vivo test on Venturia inaequalis (apple scab/protective); settings: 240 h, protective, assessment 10 days after inoculation, read-out: % Wirkungsgrad
Procedure: (§1) Emulsifier: 1 part by weight alkylaryl polyglycol ethers For the preparation of a suitable active substance preparation, 1 part by weight of active substance is mixed with the stated quantities of solvent and emulsifier and the concentrate is diluted to the desired concentration with water. For the testing for protective activity, young plants are sprayed with the active substance preparation at the stated application dosage. […] 10 days after the inoculation, the assessment takes place.

Botrytis cinerea = assay: Example P: in vivo test on Botrytis cinerea (gray mould on bean/protective); settings: 48 h, bean, protective, 250 ppm active substance, assessed 2 days after inoculation, read-out: % Wirkungsgrad (activity level)
Procedure: as §1, with “dosage. After drying of the spray coating, 2 small pieces of agar with Botrytis cinerea growing on them are laid on every leaf.” for “dosage.”, “2” for “10”, “size of the infection blotches on the leaves is assessed.” for “assessment takes place.”

[1] = Fusarium proliferatum growth, OD 620, 5 days, read-out: % Inhibition des Pilzwachstums bei 50 μM
[2] = Fusarium proliferatum, 5 days at 20° C., HPLC-MS/MS, read-out: % Inhibition der FB1 produktion bei 50 μM
[3] = LogPA (logP of the stated pure compound or, in a mixture, of the main isomer, 1-substituted 3-aryl-1H-pyrazole)
[4] = 72 h, read-out: % Inhibition des Pilzwachstums bei 50 μM
[5] = 168 h, read-out: % Inhibition der DON/AcDON produktion bei 50 μM

Row | Structure (SMILES) | pest or weed control at 500 ppm (Alternaria solani) | inhibition at 50 µM (Fusarium proliferatum; [1]) | inhibition at 50 µM (Fusarium proliferatum; [2]) | pest or weed control at 500 ppm (Sphaerotheca fuliginea) | chromatographic logP (physchem; [3]) | inhibition at 50 µM (Fusarium graminearum; [4]) | inhibition at 50 µM (Fusarium graminearum; [5]) | pest or weed control at 100 ppm (Venturia inaequalis) | pest or weed control at 250 ppm (Botrytis cinerea) | chromatographic logP (physchem; LogPA)
1 | CC(C)Cn1cc(-c2ccncn2)c(-c2cccc(Cl)c2)n1 [Compound 5] | 90% | 79% | 100% | 70% | 3.27 | 97% | 100% | – | – | –
2 | Fc1ccc(-c2nn(C3CCCCO3)cc2-c2ccnc3[nH]ccc23)cc1 (stereo not shown) [Compound 20] | – | 65% | 100% | – | 2.08 | 21% | 87% | – | – | –
3 | Cc1nccc(-c2cn(C3CCCCO3)nc2-c2ccc(F)cc2)n1 (stereo not shown) [Compound 29] | 78% | 34% | 82% | 70% | 2.53 | – | – | – | – | –
4 | Fc1ccc(-c2nn(C3CCCCO3)cc2-c2ccnc3ccccc23)cc1 (stereo not shown) [Compound 54] | – | 47% | 100% | – | 2.46 | 31% | 85% | – | – | –
5 | CCC(=O)Nc1cc(-c2cn(CCOC)nc2-c2ccc(F)cc2)ccn1 [Compound 153, N-{4-[3-(4-fluorophenyl)-1-(2-methoxyethyl)-1H-pyrazol-4-yl]pyridin-2-yl}propanamide] | 90% | 48% | 100% | – | 1.61 | 56% | 100% | – | – | –
6 | CCC(C)n1cc(-c2ccnc(NC(=O)COC)c2)c(-c2ccc(F)cc2)n1 (stereo not shown) [Compound 162] | 94% | – | – | 99% | 2.95 | 99% | 99% | 96% | 100% | –
7 | COCCn1cc(-c2ccnc(NC(=O)COC)c2)c(-c2ccc(F)cc2)n1 [Compound 163] | 93% | 72% | 100% | 93% | 2.05 | 100% | 100% | – | – | –
8 | CC(C)Cn1cc(-c2ccnc(NC(=O)C3CC3)c2)c(-c2ccc(F)cc2)n1 [Compound 165] | 95% | 90% | 100% | 86% | 2.6 | 64% | 100% | – | – | –
9 | COCC(=O)Nc1cc(-c2cn(CC(C)C)nc2-c2ccc(F)cc2)ccn1 [Compound 166] | 95% | 98% | 100% | 97% | – | 84% | 100% | – | – | 2.96
10 | CCOCCn1cc(-c2ccncc2)c(-c2ccc(F)cc2)n1 [Compound 179] | 100% | – | – | 74% | – | – | – | 100% | 100% | 1.25
11 | N#CCn1cc(-c2ccncc2)c(-c2ccc(F)cc2)n1 [Compound 180] | – | – | – | – | – | – | – | 96% | 93% | 0.89
12 | CC(C)Cn1cc(-c2ccnc(NC(=O)Cc3ccccc3)c2)c(-c2ccc(F)cc2)n1 [Compound 191] | – | 1% | 96% | – | – | – | – | – | – | 3.54
13 | CCC(=O)Nc1cc(-c2cn(C3CCN(C(=O)OC(C)(C)C)CC3)nc2-c2ccc(F)cc2)ccn1 [Compound 193] | 93% | 0% | 85% | – | – | – | – | – | – | 3.03
14 | CCC(=O)Nc1cc(-c2c(-c3ccc(Cl)cc3F)nn(C)c2SC)ccn1 [Compound 195] | 80% | 17% | 100% | – | – | 0% | 80% | – | – | 2.7
15 | CCC(=O)Nc1cc(-c2c(-c3ccc(F)cc3O)nn(C)c2OC(F)F)ccn1 [Compound 196] | 100% | 25% | 100% | – | – | – | – | – | – | 2.12
16 | COCC(=O)Nc1cc(-c2c(-c3ccc(Cl)cc3F)nn(C)c2SC)ccn1 [Compound 200] | 93% | 1% | 99% | – | – | – | – | – | – | 3
17 | CC(C)n1cc(-c2ccnc(NC(=O)c3ccccc3)c2)c(-c2ccc(F)cc2)n1 [Compound 205] | 95% | – | – | 100% | – | – | – | 91% | 100% | 3.2
18 | CC(C)n1cc(-c2ccnc(NC(=O)c3cccs3)c2)c(-c2ccc(F)cc2)n1 [Compound 206] | 90% | – | – | 94% | – | 75% | 99% | 83% | 100% | 3.14
19 | COCCOCC(=O)Nc1cc(-c2cn(C(C)C)nc2-c2ccc(F)cc2)ccn1 [Compound 208] | 80% | – | – | 100% | – | 101% | 100% | 78% | 100% | 2.62
20 | CC(C)n1cc(-c2ccnc(NC(=O)C(C)(C)O)c2)c(-c2ccc(F)cc2)n1 [Compound 209] | 95% | – | – | 100% | – | – | – | 89% | 100% | 2.42
21 | CC(C)n1cc(-c2ccnc(NC(=O)C(O)CO)c2)c(-c2ccc(F)cc2)n1 (stereo not shown) [Compound 210] | 80% | – | – | 100% | – | 85% | 100% | 78% | 98% | 1.76
22 | CCC(=O)Nc1cc(-c2cn(Cc3ccccc3F)nc2-c2ccc(F)cc2)ccn1 [Compound 213] | 90% | 56% | 100% | 74% | – | 0% | 100% | – | 91% | 2.69
23 | COCC(=O)Nc1cc(-c2cn(CC(F)F)nc2-c2ccc(F)cc2)ccn1 [Compound 216] | 95% | 97% | 100% | 89% | – | – | – | – | – | 2.27
24 | COCC(=O)Nc1cc(-c2cn(CC3CC3)nc2-c2ccc(F)cc2)ccn1 [Compound 223] | 90% | 96% | 100% | 91% | – | 99% | 97% | – | – | 2.61
25 | CC(=O)Nc1cc(-c2cn(CC(F)F)nc2-c2ccc(F)cc2)ccn1 [Compound 242] | 88% | – | – | 97% | – | – | – | 89% | 99% | 1.74
26 | CC(C)(O)C(=O)Nc1cc(-c2cn(CC(F)F)nc2-c2ccc(F)cc2)ccn1 [Compound 243] | 100% | – | – | 95% | – | – | – | 98% | 75% | 2.18
27 | CCC(=O)Nc1cc(-c2cn(CC3CC3(Cl)Cl)nc2-c2ccc(F)cc2)ccn1 (stereo not shown) [Compound 249] | 94% | – | – | 92% | – | – | – | 96% | 100% | 2.8
28 | CC(C)C(=O)Nc1cc(-c2cn(CC3CC3(Cl)Cl)nc2-c2ccc(F)cc2)ccn1 (stereo not shown) [Compound 254] | 94% | – | – | 92% | – | 16% | 99% | 73% | – | 3.17
